Assay results taken from US20120035161A1, “Novel Compositions and Methods of Treating Diseases Using the Same” (CORRIDOR PHARMACEUTICALS, INC., priority 2006, published 2012).

Columns and labels:
[1] = test system: Aspergillus fumigatus-based mouse asthma model; assay: Aspergillus fumigatus-based mouse asthma model, lung resistance; format: in vivo; details: 20 mg/ml, intraperitoneally; for Lung resistance: A. fumigatus insult, day 29
Procedure: Compounds of the invention were also tested for efficiacy in an asthma model.
A cohort of mice was administered intraperitoneal injections of Aspergillus fumigatus on days 0, 14, 26, 27, and 28. Lung resistance was tested on day 29 immediately following a tracheotomy/methacholine procedure. Animals receiving dexamethasone were administered dexamethasone on days 26, 27 and 28. Animals receiving a compound of the invention were administered the compound just hours before the lung resistance test. As a control, all test compounds, as well as dexamethasone, were also administered to mice in the absence of an A. fumigatus insult.

[2] = test system: Serotonin (5-Hydroxytryptamine) 5-HT1, Non-Selective; assay: Assay 271000 radioligand binding, 5-HT1 non-selective; set-up: species or system Wistar Rat
Procedure: (§1) The methods employed in this study have been adapted from the scientific literature to maximize reliability and reproducibility. Reference standards were run as an integral part of each assay to ensure the validity of the results obtained. Assays were performed under conditions as described below. Where presented, IC50 values were determined by a non-linear, least squares regression analysis using the Data Analysis Toolbox (MDL Information Systems, San Leandro, Calif., USA). Where inhibition constants (Ki) are presented, the Ki values were calculated using the equation of Cheng and Prusoff (Cheng, Y., Prusoff, W. H., Biochem. Pharmacol. 22:3099-3108, 1973) using the observed IC50 of the tested compound, the concentration of radioligand employed in the assay, and historical values for the KD of the ligand. Where presented, the Hill coefficient (nu), defining the slope of the competitive binding curve, was calculated using the Data Analysis Toolbox.

[3] = molecular target: T1, Serotonin (5-Hydroxytryptamine) 5-HT1A (Homo sapiens, UniProt P08908); assay: Radioligand binding, 5-HT1A ([3H] 8-OH-DPAT)
T1 construct: expressed in transfected cells; host or cells: CHO cells
T1 sequence (P08908 1-422): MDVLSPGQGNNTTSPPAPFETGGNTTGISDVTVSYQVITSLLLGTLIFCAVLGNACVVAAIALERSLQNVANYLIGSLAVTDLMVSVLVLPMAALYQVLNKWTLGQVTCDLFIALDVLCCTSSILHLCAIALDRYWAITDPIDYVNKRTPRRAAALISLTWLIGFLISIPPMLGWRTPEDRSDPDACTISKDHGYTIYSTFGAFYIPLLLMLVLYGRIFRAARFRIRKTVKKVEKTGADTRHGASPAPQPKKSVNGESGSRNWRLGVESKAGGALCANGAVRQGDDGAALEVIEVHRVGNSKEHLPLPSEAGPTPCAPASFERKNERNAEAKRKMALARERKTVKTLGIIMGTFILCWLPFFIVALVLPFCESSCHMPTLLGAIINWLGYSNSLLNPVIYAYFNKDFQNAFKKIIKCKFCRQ
Procedure: as §1

[4] = molecular target: T2, Serotonin (5-Hydroxytryptamine) 5-HT1B (Rattus norvegicus, UniProt P28564); assay: Assay 271200 radioligand binding, 5-HT1B; set-up: species or system Wistar Rat
T2 construct: from tissue
Procedure: as §1

[5] = test system: Serotonin (5-Hydroxytryptamine) 5-HT2, Non-Selective; assay: Assay 271600 radioligand binding, 5-HT2 non-selective; set-up: species or system Wistar Rat
Procedure: as §1

TNF-α = assay: Model of LPS-mediated cytokine production, serum TNF-α; format: in vivo, CD1:ICR mice; details: 10 mg/kg
Procedure: (§2) Both ICI-685 and ICI-735 were formulated in water. For the time course study, both drugs were formulated at a concentration of 1 mg/ml and dosed 10 ml/kg to produce a dose of 10 mg/kg. For the dose-response study, drug was formulated at concentrations of 0.05, 0.2 and 0.5 mg/ml and dosed at a volume of 10 ml/kg to produce doses of 0.5, 2 and 5 mg/kg, respectively. Animals were dosed IV or IP.
CD1:ICR mice were obtained from Harlan (Indianapolis, Ind.) at 6 weeks of age. Animals were housed 5 per cage, kept on a 12 hr light dark cycle and fed food and water ad libitum. Animals were tested at 8-10 weeks of age.
(§3) Lipopolysaccharide (heat killed E. coli 0127:B5; Sigma Aldrich) was prepared in distilled water at a concentration of 0.025 mg/ml. LPS was dosed at a volume of 10 ml/kg (IP) to produce a final dose of 0.25 mg/kg (approximately 7.5 μg/mouse). Drugs were dosed prior to LPS administration as indicated elsewhere herein. Blood was collected by retro-orbital eye bleed 90 minutes after LPS administration, Serum was prepared from blood and TNF-α and IL-1β levels were measured by using the OPT-EIA mouse TNF-α and IL-1β ELISA kits (BD Biosciences) as per directions of the manufacturer.
The first study was designed to determine the optimal route of administration and the optimal pre-treatment time. Two pre-dose time course studies were conducted. The first (Study 1A) was conducted with 3 pre-dose time points (2, 6 and 18 hrs). The second was conducted at 0, 1 and 2 hr predose time points. For both studies, drug was dosed IP or IV.
Using data from the first study, a second study was conducted that was designed to measure dose-response activity of each compound. Compounds were tested at doses of […]., 2.0 and 5 mg/kg using the route and pre-treatment time that produced the best activity.
as §2, with “Compounds ICI-715, ICI-824, ICI-953” for “Both ICI-685”, “ICI-954” for “ICI-735”, “study,” for “study, both”, “drugs were” for “drug was”
as §3, with “mg/ml,” for “mg/ml.”, “[…]).” for “μg/mouse).”, “above.” for “elsewhere herein.”, “administration.” for “administration,”
The first study was designed to determine the optimal route of administration and the optimal pre-treatment time. One pre-dose time course was conducted (for all compounds) with compounds administered at 0, 1 and 2 hrs prior to LPS treatment. For both studies, drug was dosed IP or IV. The IP study and IV study were conducted on separate days.
Using data from the first study, a second study was conducted that was designed to measure dose-response activity of each compound. Compounds were tested at doses of 0.5, 2.0 and 5 mg/kg using the route and pre-treatment time that produced the best activity.

[6] = test system: rheumatoid arthritis (RA) animal model; assay: Clinical arthritis score in mice sensitized with collagen injections; format: in vivo
Procedure: FIGS. 26-28 illustrate the effect of various compounds of the invention on the clinical arthritis score of mice treated with various compounds of the invention.
Additional testing of the effectiveness of compounds ICI-685, ICI-735 and ICI-847 at higher and lower concentrations were conducted, as illustrated in FIG. 29.

T2 sequence (P28564 whole entry): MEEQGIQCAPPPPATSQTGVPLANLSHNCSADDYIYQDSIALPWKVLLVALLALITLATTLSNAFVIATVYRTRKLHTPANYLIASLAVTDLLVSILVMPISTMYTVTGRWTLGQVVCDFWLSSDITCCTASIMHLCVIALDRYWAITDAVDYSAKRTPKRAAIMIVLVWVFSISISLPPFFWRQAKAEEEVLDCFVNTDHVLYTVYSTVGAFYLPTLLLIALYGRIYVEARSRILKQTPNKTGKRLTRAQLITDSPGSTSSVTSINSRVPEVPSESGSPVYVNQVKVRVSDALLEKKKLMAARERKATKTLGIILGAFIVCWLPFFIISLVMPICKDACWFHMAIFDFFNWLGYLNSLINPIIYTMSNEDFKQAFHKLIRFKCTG

Row | % INHIBITION ([2]; 0.1 μM) [%] | % INHIBITION ([2]; 10 μM) [%] | inhibition at 0.1 µM [3] [%] | inhibition at 10 µM [3] [%] | inhibition at 0.1 µM [4] [%] | inhibition at 10 µM [4] [%] | % INHIBITION ([5]; 0.1 μM) [%] | % INHIBITION ([5]; 10 μM) [%] | Structure (SMILES) | Lung resistance [1] [cm H2O/ml/s] | inhibition at 10 mg/kg (TNF-α; Mus musculus, second pre-dose time course study, read-out: inhibition of TNFα) [%] | inhibition of TNFα levels (TNF-α; first time course, 2 hr pretreatment period, IV administration) | inhibition of LPS-stimulated TNFα secretion (TNF-α; pre-dose time course, IV or IP) | effectiveness at treating RA compared with dexamethasone ([6]; 30 mg/kg, FIG. 29) | clinical arthritis score compared with dexamethasone ([6]; orally 10 mg/kg daily, about 21 days, FIG. 26) | decreasing lung resistance compared with dexamethasone [1]
1 | −3 | 32 | 1 | 26 | 6 | 10 | 31 | 82 | FC(F)(F)c1ccc2c(c1)N(CCCN1CCNCC1)c1ccccc1S2 [ICI-685] | 12 | 70 | did not inhibit | inhibited |  |  | 
2 | −11 | −7 | -8 | 74 | -5 | -33 | 3 | 82 | NCCCN1CCC(CCCN2c3ccccc3Sc3ccc(C(F)(F)F)cc32)CC1 [ICI-847] | 7.25 |  |  |  | as effective for the length of the study as is dexamethasone | as effective as dexamethasone | at least as effective as dexamethasone
3 |  |  |  |  |  |  |  |  | C[C@@H]1C[C@H]2[C@@H]3CCC4=CC(=O)C=C[C@]4(C)[C@@]3(F)[C@@H](O)C[C@]2(C)[C@@]1(O)C(=O)CO [Dexamethasone, reference compound] | 7.75 |  |  |  |  |  | 
